Assays:
HIV-1 protease [1] = target: T1, HIV-1 protease (Human immunodeficiency virus type 1 group M subtype B, UniProt P04585); assay: biochemical; details: for inhibition at 0.123 µM: read-out: HIV-1 Protease % Inhib, dose 0.123 uM; for inhibition at 0.37 µM: read-out: HIV-1 Protease % Inhib, dose 0.370 uM; for inhibition at 1.1 µM: read-out: HIV-1 Protease % Inhib, dose 1.100 uM; for inhibition at 3.3 µM: read-out: HIV-1 Protease % Inhib, dose 3.300 uM; for inhibition at 10 µM: read-out: HIV-1 Protease % Inhib, dose 10.000 uM; for inhibition at 30 µM: read-out: HIV-1 Protease % Inhib, dose 30.000 uM
Summary of the method: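 Percent inhibition derived from fluorescent cleavage product separated by filtration after streptavidin-bead capture of intact biotin/FITC substrate. Reaction: enzyme (10 μl, 0.1 μM stock) with substrate (20 μl, 0.2 μM stock) and compound, 1 h at room temperature in dark, pH 5.5 acetate buffer with 1.0 M NaCl and 0.05% NP-40.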

[2] = tested on: p55 Processing in vVk-1 infected CV-1 Cells; assay: CV-1 Cell Assay: inhibition of p55 processing in vVK-1 infected CV-1 cells (p24 levels); format: cell-based; details: Cercopithecidae, CV-1, read-out: CV-1 Cell Assay % Inhib
Method: Inhibition of p55 Processing in vVk-1 infected CV-1 Cells. CV-1 cells are seeded at 2×10^5 cells per well in 24-well Costar dishes and infected 4 to 6 hours later with vVK-1 at 5 plaque-forming units (PFU) per cell. Each compound is dissolved in Dulbecco's Modified Eagles medium (DMEM) containing 2.5% fetal bovine serum and is added to duplicate wells at the indicated final concentration 2 hours after virus addition. After 24 hours, the culture medium is removed and the monolayer washed with 1 mL of phosphate buffered saline (PBS), and the cells lysed by the addition of 0.1 mL of loading buffer (62.5 mM Tris (hydroxymethyl) aminomethane (Tris), pH 6.8, 2.3% sodium dodecyl sulfate (SDS), 5% β-mercaptoethanol, and 10% glycerol). The cell lysates are collected individually, placed in boiling water for 3 minutes, and then 0.025 mL of each sample is subjected to electrophoresis on 12% SDS-polyacrylamide gels. The proteins are electroblotted onto nitrocellulose and analyzed by protein immunoblotting. The primary antibodies are sheep antibody to p24 (International Enzyme, Inc., Fallbrook, Calif.) and the secondary antibody is alkaline-phosphatase-conjugated rabbit antibody to sheep immunoglobulin G (Kirkegaard & Perry Laboratories, Gaithersburg, Md.). The levels of immunoreactive proteins are quantified by densitometry (Bio-Rad, Model 260) with the accompanying 1-D Analyst Software. Inhibition refers to the mean percent decrease in p24 levels determined from the duplicate drug-treated samples compared to the nondrug-treated controls. […] Val-Ile-Amp (also known as N-[1-(cyclohexylmethyl)-2,3-dihydroxy-5-methyl-4-[[[2-methyl-1-[[(2-pyridinylmethyl)amino]carbonyl]butyl]-amino]carbonyl]hexyl]-α-[[(1-naphthalenyloxy)acetyl]amino]-, [1S-[1R*(R*),2S*,3S*,4S*(1R*,2R*)]]-1H-imidazole-4-propanamide) (which was disclosed in International Publication Number WO 87/05302, published 11 Sep. 1987) was also determined in each experiment.

HIV-1 protease [3] = target: T1, HIV-1 protease; assay: biochemical; details: read-out: HIV-1 FITC KI
Summary of the method: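 Enzyme (40 nM stock) and substrate (200 μM stock) incubated with inhibitor, 24–48 two-fold serial concentrations, for 90 min at room temperature, then quenched with avidin beads. Nonlinear least-squares analysis gives Ki; a known-Ki inhibitor validates each run.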

Compound | inhibition at 0.123 µM (HIV-1 protease [1]) [%] | inhibition at 0.37 µM (HIV-1 protease [1]) [%] | inhibition at 1.1 µM (HIV-1 protease [1]) [%] | inhibition at 3.3 µM (HIV-1 protease [1]) [%] | inhibition at 10 µM (HIV-1 protease [1]) [%] | inhibition at 30 µM (HIV-1 protease [1]) [%] | Ki (HIV-1 protease [3]) [nM] | further results
CCCC(c1ccccc1)c1c(O)c2ccccc2oc1=O (stereo not drawn) [Example 10, 4-Hydroxy-3-(1-phenylbutyl)-coumarin] | – | – | – | – | – | – | – | IC50 (HIV-1 protease [1]; HIV-1 Protease IC50): 1710 nM; inhibition at 0.098 µM (HIV-1 protease [1]; read-out: HIV-1 Protease % Inhib, dose 0.098 uM): < 10%; inhibition at 0.196 µM (HIV-1 protease [1]; read-out: HIV-1 Protease % Inhib, dose 0.196 uM): < 10%; inhibition at 0.78 µM (HIV-1 protease [1]; read-out: HIV-1 Protease % Inhib, dose 0.780 uM): 33.2%; inhibition at 1.56 µM (HIV-1 protease [1]; read-out: HIV-1 Protease % Inhib, dose 1.560 uM): 53.6%; inhibition at 12.5 µM (HIV-1 protease [1]; read-out: HIV-1 Protease % Inhib, dose 12.500 uM): 91.5%; inhibition at 25 µM (HIV-1 protease [1]; read-out: HIV-1 Protease % Inhib, dose 25.000 uM): 88%; inhibition at 50 µM (HIV-1 protease [1]; read-out: HIV-1 Protease % Inhib, dose 50.000 uM): 102%; inhibition at 100 µM (HIV-1 protease [1]; read-out: HIV-1 Protease % Inhib, dose 100.000 uM): 109%; inhibition at 100 µM [2]: 0%; inhibition at 300 µM [2]: 57%
O=C(CO)Nc1cccc(S(=O)(=O)Nc2cccc(C(c3c(O)c4c(oc3=O)CCCCCC4)C3CC3)c2)c1 (stereo not drawn) [Example 409, 3-(Hydroxyacetylamino)-N-[3-[cyclopropyl(5,6,7,8,9,10-hexahydro4-hydroxy-2-oxo-2H-cycloocta[b]pyran-3-yl)methyl]phenyl]-benzenesulfonamide] | 65.1 | 90.5 | 102 | 103 | 101 | 108 | 3.3 | –
O=c1oc2c(c(O)c1C(c1cccc(NS(=O)(=O)c3cccc(S(=O)(=O)N4CCOCC4)c3)c1)C1CC1)CCCCCC2 (stereo not drawn) [Example 411, N-[3-[Cyclopropyl(5,6,7,8,9,10-hexahydro-4-hydroxy-2-oxo-2H-cycloocta[b]pyran-3-yl)-methyl]phenyl]-(3-N-morpholinebenzenesulfonyl)benzenesulfonamide] | 71.1 | 79.4 | 98.5 | 104 | 107 | 106 | 2.5 | –
O=c1oc2c(c(O)c1C(c1cccc(NS(=O)(=O)c3cccc(S(=O)(=O)NCc4ccccc4)c3)c1)C1CC1)CCCCCC2 (stereo not drawn) [Example 412, N-[3-[Cyclopropyl(5,6,7,8,9,10-hexahydro-4-hydroxy-2-oxo-2H-cycloocta[b]pyran-3-yl)-methyl]phenyl]-(3-N-benzylbenzenesulfonyl)benzenesulfonamide] | 37.8 | 69.2 | 92 | 102 | 99 | 102 | 9.2 | –
O=c1oc2c(c(O)c1C(c1cccc(NS(=O)(=O)c3cccc(S(=O)(=O)N(Cc4ccccc4)Cc4ccccc4)c3)c1)C1CC1)CCCCCC2 (stereo not drawn) [Example 413, N-[3-[Cyclopropyl(5,6,7,8,9,10-hexahydro-4-hydroxy-2-oxo-2H-cycloocta[b]pyran-3-yl)-methyl]phenyl]-(3-N,N-dibenzylbenzenesulfonyl)benzenesulfonamide] | – | 17.4 | 43.1 | 77.7 | 95.2 | 92.7 | 104 | –
COCCOCCOCCOc1ccc(S(=O)(=O)Nc2cccc(C(c3c(O)c4c(oc3=O)CCCCCC4)C3CC3)c2)cc1 (stereo not drawn) [Example 415, Benzenesulfonamide, N-[3-[cyclopropyl(5,6,7,8,9,10-hexahydro-4-hydroxy-2-oxo-2H-cycloocta[b]pyran-3-yl)methyl]phenyl]-4-[2-[2-(2-methoxyethoxy)ethoxy]ethoxy]-] | 126 | 121 | 128 | 124 | 125 | 120 | 2.3 | –
CC(C)CC(c1cccc(NS(=O)(=O)c2ccc(C#N)cc2)c1)c1c(O)c2c(oc1=O)CCCCCC2 (stereo not drawn) [Example 426, Benzenesulfonamide, 4-cyano-N-[3-[1-(5,6,7,8,9,10-hexahydro-4-hydroxy-2-oxo-2H-cycloocta[b]pyran-3-yl)-3-methylbutyl]phenyl]-] | 102 | 117 | 109 | 102 | 102 | 106 | 1.48 | –
CC(C)CC(c1cccc(NS(=O)(=O)c2cn(C)cn2)c1)c1c(O)c2c(oc1=O)CCCCCC2 (stereo not drawn) [Example 427, 1H-Imidazole-4-sulfonamide, N-[3-[1-(5,6,7,8,9,10-hexahydro-4-hydroxy-2-oxo-2H-cycloocta[b]pyran-3-yl)-3-methylbutyl]phenyl]-1-methyl-] | 94.2 | 92.8 | 91.2 | 90 | 89.6 | 81.9 | 0.65 | –
CCCC(c1cccc(NS(=O)(=O)c2cn(C)cn2)c1)c1c(O)c2c(oc1=O)CCCCCC2 (stereo not drawn) [Example 431, 1H-imidazole-4-sulfonamide, N-[3-[1-(5,6,7,8,9,10-hexahydro-4-hydroxy-2-oxo-2H-cycloocta[b]pyran-3-yl)butyl]phenyl]-1-methyl-] | 109 | 109 | 109 | 112 | 105 | 106 | 0.89 | –
CCCC(c1cccc(NS(=O)(=O)c2cccc3cccnc23)c1)c1c(O)c2c(oc1=O)CCCCCC2 (stereo not drawn) [Example 432, 8-Quinolinesulfonamide, N-[3-[1-(5,6,7,8,9,10-hexahydro4-hydroxy-2-oxo-2H-cycloocta[b]pyran-3-yl)butyl]phenyl]-] | 101 | 104 | 111 | 109 | 107 | 98 | 1.65 | –
CCCC(c1cccc(NS(=O)(=O)c2cccnc2)c1)c1c(O)c2c(oc1=O)CCCCCC2 (stereo not drawn) [Example 433, 3-Pyridinesulfonamide, N-[3-[1-(5,6,7,8,9,10-hexahydro-4-hydroxy-2-oxo-2H-cycloocta[b]pyran-3-yl)butyl]phenyl]-] | 103 | 109 | 104 | 104 | 109 | 108 | 2.24 | –
O=c1oc2c(c(O)c1C1(c3ccccc3)CCC1)CCCCCC2 [Example 483, 3-(Phenylcyclobutyl)-5,6,7,8,9,10-hexahydro-4-hydroxy-2H-cycloocta[b]pyran-2-one] | – | 44.8 | 73.2 | 85.2 | 69.5 | 76.7 | 33 | –
Nc1cc(NS(=O)(=O)c2ccccc2)cc(C(c2c(O)c3c(oc2=O)CCCCCC3)C2CC2)c1 (stereo not drawn) [Example 486] | – | 40 | 74 | 97.5 | 126 | 109 | 55 | –
N-[3-[Cyclopropyl(5,6,7,8,9,10-hexahydro-4-hydroxy-2-oxo-2H-cycloocta[b]pyran-3-yl)-methyl]phenyl]-(3-N-ethylbenzenesulfonyl)benzenesulfonamide [Example 414] | – | – | – | – | – | – | 3.5 | HIV-1 Protease % Inhib (HIV-1 protease [1]; dose 0.123 uM): 62.73%; HIV-1 Protease % Inhib (HIV-1 protease [1]; dose 0.370 uM): 85.78%; HIV-1 Protease % Inhib (HIV-1 protease [1]; dose 1.100 uM): 103.16%; HIV-1 Protease % Inhib (HIV-1 protease [1]; dose 3.300 uM): 105.93%; HIV-1 Protease % Inhib (HIV-1 protease [1]; dose 10.000 uM): 104.38%; HIV-1 Protease % Inhib (HIV-1 protease [1]; dose 30.000 uM): 109.61%

Reference: patent US5686486A, “4-hydroxy-benzopyran-2-ones and 4-hydroxy-cycloalkyl[b]pyran-2-ones useful to treat retroviral infections” (priority 1995, dated 1997)
